Several values for one entry are separate records, joined by “and”; a condition that tells them apart may be missing. Identical values can stand only once.
How the values were obtained:
MLS9 = assay: CDD depletion in MLS9 0.02 mg/ml (optimisation of incubation condition); assay type: in vitro ADME, monkey; details: CDD 3 μM
Procedure: (§1) The metabolism profiles of CDD and curcumin formation profile were investigated against HLS9, MLS9, DLS9 and RLS9. A stock solution of CDD was prepared at 150 µM in 50% acetonitrile in water before use. The metabolism study was initiated by spiking a 588 µl pre-incubated LS9 with 12 µl CDD stock solution, and subsequently incubated at 37°C. The final concentrations of CDD and LS9 were 3 µM and 0.02 mg/ml, respectively. A 50 µl aliquot from the mixture was collected at 0.5, 1, 2, 3, 4, 5, 10, 15, 30, 45 and 60 min and was immediately mixed with 100 µl of ice-cold acetonitrile containing 0.45 µM of internal standard DMC to terminate the metabolic reaction. […] Samples of 120 µl of supernatant wee diluted with 40 µl of water prior to UHPLC analysis (Agilent series 1290, Agilent Technology, USA) by means of protocol outlined in Materials and Methods:“In vitro Metabolism Profiling of Curcumin Diethyl Disuccinate”. The sample at 0 min was prepared as other samples except that heat-inactivated HLS9, MLS9, DLS9 and RLS9 (80°C for 20 min; 1 mg/ml protein) were used. Duplicates were conducted for each experiment.
(§2) The peak area ratios of CDD and curcumin to internal standard in the supernatant were determined. The percent contents of CDD and curcumin were plotted against incubation time. The depletion of CDD was calculated with reference to the initial concentration. The saturated substrate was defined as % depletion less than 30.

HLS9 = assay: CDD depletion in HLS9 0.02 mg/ml (optimisation of incubation condition); assay type: in vitro ADME, human; details: CDD 3 μM
Procedure: as §1, §2

[1] = test system: rat LS9 (RLS9; Sprague–Dawley); assay: In vitro metabolism profiling of CDD in rat liver S9 (1 mg/ml); assay type: in vitro ADME
Procedure: (§3) The metabolism profiles of CDD were investigated against HLS9, MLS9, DLS9, and RLS9. A stock solution of CDD was prepared at 150 µM in 50% acetonitrile in water before use. The metabolism study was initiated by spiking 735 µl of preincubated LS9 with 15 µl of CDD stock solution, and the mixture was subsequently incubated at 37°C. The final concentrations of CDD and LS9 were 3 μM and 1 mg/ml, respectively. A 50-µl aliquot from the mixture was collected at 0.5, 1, 2, 3, 4, 5, 10, 15, 30, 45, 60, 90, and 120 min and immediately mixed with 100 µl of ice-cold acetonitrile containing 0.45 µM of internal standard DMC to terminate the metabolic reaction. […] The sample at the initial time point (0 min) was prepared as the other samples, except that heat-inactivated HLS9, MLS9, DLS9, and RLS9 (80°C for 20 min; 1 mg/ml protein) were used.
(§4) The UHPLC system consisted of an Agilent series 1290 quaternary pump with an online degasser, autosampler, column oven, and diode array detector. The mobile phase was composed of (A) 0.1% (v/v) formic acid in acetonitrile and (B) 0.1% (v/v) formic acid in water. Each solution was filtered through a nylon filter (pore size, 0.22 µm; MS® Membrane Filters; Membrane Solutions, United States) before use. The mobile phase flow rate was kept at 1.2 ml/min in a gradient mode using the following elution program: 0–3.0 min, initial A-B (40:60, v/v); 4.5–7.0 min, isocratic elution A-B [50:50, (v/v); 8.5–11.0 min, isocratic elution A-B (60:40, v/v); and 12.0–17.0 min, isocratic elution A-B (40:60, v/v)]. CDD, curcumin, and MSCUR in the supernatant were partitioned using a C8 column (4.6 mm × 50 mm, 2.7 µm; HALO, Advanced Materials Technology, United States) with reference to DMC. The detection wavelength was set at 400 nm (λ max(CDD) = 400 nm, λ max(curcumin) = 427 nm, λ max(MSCUR) = 418 nm, and λ max(DMC) = 421 nm). The column was maintained at 35°C throughout the run, and the supernatant injection volume was set at 20 µl.
(§5) The concentrations of CDD, curcumin, and MSCUR in the supernatant were determined from the standard plots, which were prepared by spiking individual working solutions of the compounds to heat-inactivated HLS9, MLS9, DLS9, and RLS9 ([Alcorn et al., 2007]; [Montoro-Garcia et al., 2009]; [Singh et al., 2010]). These working standards were extracted with 100 µl of ice-cold acetonitrile containing 0.45 µM of DMC and then 120 μl of the supernatant was diluted with 40 μl of water prior to the UHPLC analysis. The peak area ratios of CDD, curcumin, and MSCUR to the internal standard were computed against linear concentration ranges of 0.025–4.5 µM CDD, 0.025–4.5 µM curcumin, and 0.0125–0.75 µM MSCUR, respectively, with the coefficient of determination (r^2) values greater than 0.99.
(§6) The percent content of CDD and the metabolites formed upon its incubation with LS9, namely, curcumin and MSCUR, was plotted against incubation time.
(§7) The following equations were adopted to describe the changes in CDD and MSCUR content over time (t): A = A0e^−k1t (2) B= k1A0/k2−k1(e^−k1t−e^−k2t), (3) where A0 is the CDD concentration at time 0, k 1 is the degradation rate constant of CDD, and k 2 is the degradation rate constant of MSCUR. k 1 and k 2 were determined by using Eqs. 2 and 3, respectively, with nonlinear regression analysis using the SOLVER function of Microsoft Excel for Office 365 MSO (16.0.12527.20986) ([Brown, 2001]). The half-life (t 1/2) was calculated using Eq. 4: t1/2=0.693/k (4)
(§8) The in vitro intrinsic clearance (CLint,in vitro) of CDD and MSCUR in LS9 was calculated using Eq. 5: CLint, in vitro= k × [V]incubation(ml)/[P]incubation(mg protein), (5) where [V]incubation is the incubation volume in ml, and [P]incubation is the amount of LS9. […]

[2] = as above; assay type: in vitro ADME, rat (Sprague–Dawley); details: Sprague-Dawley, liver S9; rat LS9 1 mg/ml; read-out: t 1/2 (CDD)
Procedure: as §3, §4, §5, §6, §7, §8

## CCOC(=O)CCC(=O)Oc1ccc(/C=C/C(=O)/C=C(O)/C=C/c2ccc(OC(=O)CCC(=O)OCC)c(OC)c2)cc1OC [CDD, curcumin diethyl disuccinate]
MLS9; 0.5 min
  % CDD remaining: 75.32%
MLS9; 0.5 min (selected incubation time)
  %Depletion of CDD: 25% and 24.68%
MLS9; 1 min
  % CDD remaining: 63.90%
  %Depletion of CDD: 36.10%
MLS9; 2 min
  % CDD remaining: 49.34%
  %Depletion of CDD: 50.66%
MLS9; 3 min
  % CDD remaining: 37.51%
  %Depletion of CDD: 62.49%
MLS9; 4 min
  % CDD remaining: 28.36%
  %Depletion of CDD: 71.64%
MLS9; 5 min
  % CDD remaining: 21.92%
  %Depletion of CDD: 78.08%
HLS9; 0.5 min
  % CDD remaining: 82.88%
  %Depletion of CDD: 17.12%
HLS9; 1 min
  % CDD remaining: 80.95%
HLS9; 1 min (selected incubation time)
  %Depletion of CDD: 19% and 19.05%
HLS9; 2 min
  % CDD remaining: 68.18%
  %Depletion of CDD: 31.82%
HLS9; 3 min
  % CDD remaining: 57.46%
  %Depletion of CDD: 42.54%
HLS9; 4 min
  % CDD remaining: 43.15%
  %Depletion of CDD: 56.85%
HLS9; 5 min
  % CDD remaining: 36.37%
  %Depletion of CDD: 63.63%
[1]; rat LS9
  CLint, in vitro(CDD): 0.68 ± 0.13 ml min^−1 mg protein^−1
[1]; rat LS9 1 mg/ml, CDD 3 µM, 37°C
  k 1 (CDD): 0.68 ± 0.13 min⁻¹
[1]; rat, scaled from CLint,in vitro with physiologically based scaling factors
  CLint, in vivo(CDD): 197.51 ± 37.52 L/h/kg
[1]; rat, sum of CLint,in vivo(CDD) and CLint,in vivo(MSCUR)
  CLint, in vivo total: 3,002.88 ± 180.63 L h^−1 kg^−1
[1]; rat, well-stirred model, QH 70 ml min^−1 kg^−1, fup 0.0594
  CLH (predicted hepatic clearance): 4.10 ± 5.77 × 10^–3 L h^−1 kg^−1
[2]
  half-life at 3 µM: 1.04 ± 0.18 min
